{"source": "patent US9314485B2", "about": "“Use of PI3K M-TOR and AKT inhibitors to induce FOXP3 expression and generate regulatory T cells” (Medical Research Council, priority 2006, dated 2016)", "key": {"[1]": {"tested_on": "naive CD62LhiCD4+CD25− LN T cells", "assay": "Foxp3 induction in newly activated naive CD4 T cells (intracellular staining)", "format": "cell-based, mouse", "conditions": "for percentage of cells expressing Foxp3: added 18 hours after activation with TCR signal deprivation, read within 24-48 hours; for effect on Foxp3 expression (in words): newly activated T cells deprived of TCR signals; for Foxp3 expression in control cultures, TCR signal deprived cultures subtracted: serum free AIM-V medium, without anti TGFβ and SB431542, 24-48 hours / 2 days", "description": "Mouse strains, cell sorting and culture Animal work was carried out according the Animals (Scientific Procedures) Act, UK. Lymph node (LN) cells were stained, analysed and sorted by flow cytometry as described (Cobb et al 2005 J. Exp. Med. 201: 1367-1373). Intracellular staining for Foxp3 protein was done as advised by the manufacturers (eBiosciences.com). The phosphorylation syatus of S6 ribosomal protein was determined using anti pS6 Ser235/236 (Cellsignaling cat.no. 2211, http://www.cellsignal.com) using the eBioscience Foxp3 staining kit and anti rabbit IgG-FITC or IgG-Cy5 (Jackson Immunoresearch). For induction of Foxp3 expression, sorted LN CD4+ CD25− CD62Lhi T cells were cultured at 1-3×10^6/ml with plate bound anti-TCRβ. […] After 18 hours the cells were either left in place for continued TCR stimulation or moved to uncoated wells with the indicated additives. To assess regulatory function, CD4 T cells cultured as indicated were titrated into round bottom wells containing either 1×10^5 CFSE labeled total LN cells or 5×10^4 CFSE labeled CD4^+ CD25^− T cells and 1×10^5 mitomycin-C treated (25 μg/ml, 20 min, 37° C.) T cell depleted splenocytes with the indicated concentrations of anti CD3 (2C11, Pharmingen). CD4 T cell CFSE profiles were recorded between 48 and 72 hours later.\nMice, Cell Sorting and Culture. Animal work was carried out according to the Animals (Scientific Procedures) Act, UK. Lymph node (LN) cells or thymocytes from wild type were stained, analysed and sorted by flow cytometry as described (Thompson et al., 2007 Immunity VoI 26 pp 335-344) from wild type (C57BL/6, BALB/c or C57BL/6×129) mice or from Rag1 deficient H2^b AND TCR transgenic mice. Antigen presenting cells were derived from bone marrow in the presence of GM-CSF and incubated with antigenic peptide. Intracellular staining for Foxp3 protein was done as advised by the manufacturers (eBiosciences.com). The phosphorylation status of S6 ribosomal protein was determined using anti pS6 Ser235/236 (Cell Signaling cat.no. 2211, http://www.cellsignal.com) using the eBioscience Foxp3 staining kit and anti rabbit IgG-FITC or IgG-Cy5 (Jackson ImmunoResearch). […] After 18 hours the cells were either left in place for continued TCR stimulation or moved to uncoated wells with the indicated additives. To assess regulatory function, CD4 T cells cultured as indicated were titrated into round bottom wells containing either 1×10^5 CFSE labeled total LN cells or 5×10^4 CFSE labeled CD4^+CD25^− T cells and 1×10^5 mitomycin-C treated (25 μg/ml, 20 min, 37° C.) T cell depleted splenocytes with the indicated concentrations of anti CD3 (2C11, Pharmingen). CD4 T cell CFSE profiles were recorded between 48 and 72 hours later."}, "PI4P5KIα [2]": {"tested_on": "PI4P5KIα", "conditions": "second PI4P5KIα line; unit inferred; read-out: Specificity for PI4P5KIα (IC50 determined in vitro); cited from earlier work"}, "PI3KC2α": {"target": "PI3KC2α (Homo sapiens, UniProt O00443)", "sequence (O00443 whole entry, species assumed)": "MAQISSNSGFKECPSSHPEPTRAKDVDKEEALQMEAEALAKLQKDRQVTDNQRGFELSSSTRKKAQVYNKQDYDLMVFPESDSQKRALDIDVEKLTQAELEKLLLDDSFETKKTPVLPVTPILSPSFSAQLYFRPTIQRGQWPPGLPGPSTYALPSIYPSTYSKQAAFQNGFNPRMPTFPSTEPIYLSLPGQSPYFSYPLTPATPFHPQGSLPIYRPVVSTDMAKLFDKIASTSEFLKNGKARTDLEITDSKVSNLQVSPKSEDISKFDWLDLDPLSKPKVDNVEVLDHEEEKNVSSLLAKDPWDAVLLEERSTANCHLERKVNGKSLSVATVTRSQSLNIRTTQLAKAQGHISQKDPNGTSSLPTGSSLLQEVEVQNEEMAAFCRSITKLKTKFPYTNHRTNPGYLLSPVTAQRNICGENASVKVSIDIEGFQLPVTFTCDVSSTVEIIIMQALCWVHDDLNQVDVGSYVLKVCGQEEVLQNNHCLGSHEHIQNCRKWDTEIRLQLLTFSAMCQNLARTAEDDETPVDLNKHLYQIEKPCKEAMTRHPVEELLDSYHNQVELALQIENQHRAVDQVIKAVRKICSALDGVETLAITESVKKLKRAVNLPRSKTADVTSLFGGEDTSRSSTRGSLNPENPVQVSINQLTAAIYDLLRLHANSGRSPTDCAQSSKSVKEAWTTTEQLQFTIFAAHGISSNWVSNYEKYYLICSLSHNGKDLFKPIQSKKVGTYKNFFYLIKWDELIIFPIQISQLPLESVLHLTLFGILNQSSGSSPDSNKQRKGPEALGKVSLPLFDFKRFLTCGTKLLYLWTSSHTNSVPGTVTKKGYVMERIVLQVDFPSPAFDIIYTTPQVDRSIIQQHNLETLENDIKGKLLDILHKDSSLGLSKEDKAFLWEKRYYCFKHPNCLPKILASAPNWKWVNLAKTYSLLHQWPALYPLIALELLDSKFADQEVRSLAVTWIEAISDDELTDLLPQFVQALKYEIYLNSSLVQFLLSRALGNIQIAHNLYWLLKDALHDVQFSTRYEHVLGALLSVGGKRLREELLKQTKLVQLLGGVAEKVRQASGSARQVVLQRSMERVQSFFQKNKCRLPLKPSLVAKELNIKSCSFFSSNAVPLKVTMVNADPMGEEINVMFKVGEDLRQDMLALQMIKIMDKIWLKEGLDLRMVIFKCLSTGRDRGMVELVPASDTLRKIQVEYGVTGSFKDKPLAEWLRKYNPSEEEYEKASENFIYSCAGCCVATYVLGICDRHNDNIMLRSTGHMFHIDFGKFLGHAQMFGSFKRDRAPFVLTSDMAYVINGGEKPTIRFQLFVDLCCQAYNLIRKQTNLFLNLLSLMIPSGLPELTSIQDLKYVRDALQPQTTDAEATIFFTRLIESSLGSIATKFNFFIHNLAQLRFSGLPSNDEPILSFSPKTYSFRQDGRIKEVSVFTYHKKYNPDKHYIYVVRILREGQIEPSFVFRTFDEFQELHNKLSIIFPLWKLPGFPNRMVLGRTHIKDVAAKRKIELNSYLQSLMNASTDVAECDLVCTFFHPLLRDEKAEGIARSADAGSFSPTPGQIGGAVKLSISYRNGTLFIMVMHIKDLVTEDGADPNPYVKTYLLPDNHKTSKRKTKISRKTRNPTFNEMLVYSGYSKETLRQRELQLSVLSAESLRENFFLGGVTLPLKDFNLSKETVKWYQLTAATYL", "conditions": "unit inferred; read-out: Specificity for PI3KC2α (IC50 determined in vitro); cited from earlier work"}, "PI4KIIα": {"target": "PI4KIIα (Homo sapiens, UniProt Q9BTU6)", "sequence (Q9BTU6 whole entry)": "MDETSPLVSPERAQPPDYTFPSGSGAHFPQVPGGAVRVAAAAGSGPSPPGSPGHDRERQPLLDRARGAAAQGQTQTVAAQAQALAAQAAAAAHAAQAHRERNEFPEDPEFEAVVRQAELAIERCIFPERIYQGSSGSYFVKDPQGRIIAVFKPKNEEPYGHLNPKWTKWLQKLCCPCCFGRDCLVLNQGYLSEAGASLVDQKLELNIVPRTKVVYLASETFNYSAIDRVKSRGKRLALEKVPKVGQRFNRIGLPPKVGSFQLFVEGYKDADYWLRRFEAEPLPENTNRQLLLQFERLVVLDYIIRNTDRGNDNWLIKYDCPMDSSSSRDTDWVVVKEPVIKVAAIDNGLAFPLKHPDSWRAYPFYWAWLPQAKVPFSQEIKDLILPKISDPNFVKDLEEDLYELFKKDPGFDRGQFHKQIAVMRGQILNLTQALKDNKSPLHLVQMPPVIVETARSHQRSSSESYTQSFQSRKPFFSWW", "conditions": "unit inferred; read-out: Specificity for PI4KIIα (IC50 determined in vitro); cited from earlier work"}, "PI4KIIIα": {"target": "PI4KIIIα (Homo sapiens, UniProt P42356)", "sequence (P42356 whole entry)": "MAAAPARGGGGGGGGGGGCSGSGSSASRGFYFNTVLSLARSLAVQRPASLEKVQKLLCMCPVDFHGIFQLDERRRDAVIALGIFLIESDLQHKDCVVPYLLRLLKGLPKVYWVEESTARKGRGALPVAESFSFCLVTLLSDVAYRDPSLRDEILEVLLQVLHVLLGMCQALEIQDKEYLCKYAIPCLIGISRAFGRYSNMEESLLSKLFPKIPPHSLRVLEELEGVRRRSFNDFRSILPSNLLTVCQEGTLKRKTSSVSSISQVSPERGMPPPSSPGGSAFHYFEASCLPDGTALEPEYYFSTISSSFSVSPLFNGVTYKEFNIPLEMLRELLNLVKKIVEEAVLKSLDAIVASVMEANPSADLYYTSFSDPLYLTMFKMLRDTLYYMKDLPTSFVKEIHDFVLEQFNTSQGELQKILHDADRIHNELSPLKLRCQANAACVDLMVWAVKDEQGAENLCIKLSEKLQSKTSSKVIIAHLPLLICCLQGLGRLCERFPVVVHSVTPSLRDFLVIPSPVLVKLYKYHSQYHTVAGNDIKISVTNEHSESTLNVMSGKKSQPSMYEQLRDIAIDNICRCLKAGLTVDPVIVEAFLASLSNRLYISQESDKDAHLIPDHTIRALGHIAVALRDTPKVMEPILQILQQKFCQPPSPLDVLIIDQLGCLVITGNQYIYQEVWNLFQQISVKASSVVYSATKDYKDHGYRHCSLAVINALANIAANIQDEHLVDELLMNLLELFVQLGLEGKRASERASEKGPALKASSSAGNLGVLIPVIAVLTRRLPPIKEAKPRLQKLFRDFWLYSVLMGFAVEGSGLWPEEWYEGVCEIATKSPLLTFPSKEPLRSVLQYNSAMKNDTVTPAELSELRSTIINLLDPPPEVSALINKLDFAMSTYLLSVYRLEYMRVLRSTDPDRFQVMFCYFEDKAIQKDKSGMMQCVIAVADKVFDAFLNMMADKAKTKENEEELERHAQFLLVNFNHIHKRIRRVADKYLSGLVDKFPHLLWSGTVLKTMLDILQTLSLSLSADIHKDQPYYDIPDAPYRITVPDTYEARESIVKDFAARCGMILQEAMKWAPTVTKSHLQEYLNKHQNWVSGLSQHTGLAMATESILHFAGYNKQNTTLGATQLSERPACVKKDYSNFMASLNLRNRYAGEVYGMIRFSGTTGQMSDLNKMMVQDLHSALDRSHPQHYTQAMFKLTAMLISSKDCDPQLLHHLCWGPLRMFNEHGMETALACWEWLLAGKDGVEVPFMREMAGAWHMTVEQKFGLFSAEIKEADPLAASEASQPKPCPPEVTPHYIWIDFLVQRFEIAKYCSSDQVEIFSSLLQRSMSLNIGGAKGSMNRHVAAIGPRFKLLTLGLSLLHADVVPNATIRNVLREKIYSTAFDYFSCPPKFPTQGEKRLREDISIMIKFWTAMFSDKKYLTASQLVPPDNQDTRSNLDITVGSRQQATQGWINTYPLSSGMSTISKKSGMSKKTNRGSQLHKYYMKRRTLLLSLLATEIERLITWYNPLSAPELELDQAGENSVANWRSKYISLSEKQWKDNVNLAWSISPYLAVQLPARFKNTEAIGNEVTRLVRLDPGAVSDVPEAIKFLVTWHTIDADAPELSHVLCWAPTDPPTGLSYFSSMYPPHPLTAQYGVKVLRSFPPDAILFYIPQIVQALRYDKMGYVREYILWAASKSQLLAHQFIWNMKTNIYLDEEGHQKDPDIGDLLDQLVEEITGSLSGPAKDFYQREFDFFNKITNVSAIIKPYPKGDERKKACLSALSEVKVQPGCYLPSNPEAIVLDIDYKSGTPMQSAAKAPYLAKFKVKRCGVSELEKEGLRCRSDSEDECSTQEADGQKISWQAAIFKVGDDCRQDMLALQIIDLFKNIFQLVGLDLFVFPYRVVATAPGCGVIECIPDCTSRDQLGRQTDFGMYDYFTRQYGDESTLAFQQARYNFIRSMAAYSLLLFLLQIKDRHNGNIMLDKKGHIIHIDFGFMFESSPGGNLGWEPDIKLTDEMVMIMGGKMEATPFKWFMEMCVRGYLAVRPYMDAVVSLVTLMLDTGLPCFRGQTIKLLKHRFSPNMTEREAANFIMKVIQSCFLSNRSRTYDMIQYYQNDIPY", "conditions": "unit inferred; read-out: Specificity for PI4KIIIα (IC50 determined in vitro); cited from earlier work"}, "ATM": {"target": "ATM (Homo sapiens, UniProt Q13315)", "conditions": "unit inferred; read-out: Specificity for ATM (IC50 determined in vitro); cited from earlier work"}, "ATR": {"target": "ATR (Homo sapiens, UniProt Q13535)", "conditions": "unit inferred; read-out: Specificity for ATR (IC50 determined in vitro); cited from earlier work"}, "PI4P5KIα [3]": {"target": "PI4P5KIα (Homo sapiens, UniProt Q99755)", "conditions": "first PI4P5KIα line; unit inferred; read-out: Specificity for PI4P5KIα (IC50 determined in vitro); cited from earlier work"}, "DNA-PK": {"target": "DNA-PK (Homo sapiens, UniProt P78527)", "conditions": "unit inferred; read-out: Specificity for DNA-PK (IC50 determined in vitro); cited from earlier work"}, "PI5P4KIIβ": {"target": "T1, PI5P4KIIβ (Homo sapiens, UniProt P78356)", "T1 sequence (P78356 1-416)": "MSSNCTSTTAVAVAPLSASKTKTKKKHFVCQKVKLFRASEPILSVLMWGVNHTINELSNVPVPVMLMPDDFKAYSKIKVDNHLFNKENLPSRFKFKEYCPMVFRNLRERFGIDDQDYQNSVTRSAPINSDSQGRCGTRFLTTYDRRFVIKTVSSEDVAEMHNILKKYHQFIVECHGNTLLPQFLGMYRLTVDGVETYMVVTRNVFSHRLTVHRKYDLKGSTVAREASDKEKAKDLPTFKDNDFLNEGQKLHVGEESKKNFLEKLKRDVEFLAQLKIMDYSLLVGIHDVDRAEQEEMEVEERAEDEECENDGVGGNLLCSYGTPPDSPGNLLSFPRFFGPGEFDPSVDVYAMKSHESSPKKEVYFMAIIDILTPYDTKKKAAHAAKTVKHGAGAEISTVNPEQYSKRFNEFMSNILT", "conditions": "unit inferred; read-out: Specificity for PI5P4KIIβ (IC50 determined in vitro); cited from earlier work"}, "PI3KC2β": {"target": "PI3KC2β (Homo sapiens, UniProt O00750)", "conditions": "unit inferred; read-out: Specificity for PI3KC2β (IC50 determined in vitro); cited from earlier work"}, "PI4KIIIβ": {"target": "PI4KIIIβ (Homo sapiens, UniProt Q9UBF8)", "sequence (Q9UBF8 whole entry)": "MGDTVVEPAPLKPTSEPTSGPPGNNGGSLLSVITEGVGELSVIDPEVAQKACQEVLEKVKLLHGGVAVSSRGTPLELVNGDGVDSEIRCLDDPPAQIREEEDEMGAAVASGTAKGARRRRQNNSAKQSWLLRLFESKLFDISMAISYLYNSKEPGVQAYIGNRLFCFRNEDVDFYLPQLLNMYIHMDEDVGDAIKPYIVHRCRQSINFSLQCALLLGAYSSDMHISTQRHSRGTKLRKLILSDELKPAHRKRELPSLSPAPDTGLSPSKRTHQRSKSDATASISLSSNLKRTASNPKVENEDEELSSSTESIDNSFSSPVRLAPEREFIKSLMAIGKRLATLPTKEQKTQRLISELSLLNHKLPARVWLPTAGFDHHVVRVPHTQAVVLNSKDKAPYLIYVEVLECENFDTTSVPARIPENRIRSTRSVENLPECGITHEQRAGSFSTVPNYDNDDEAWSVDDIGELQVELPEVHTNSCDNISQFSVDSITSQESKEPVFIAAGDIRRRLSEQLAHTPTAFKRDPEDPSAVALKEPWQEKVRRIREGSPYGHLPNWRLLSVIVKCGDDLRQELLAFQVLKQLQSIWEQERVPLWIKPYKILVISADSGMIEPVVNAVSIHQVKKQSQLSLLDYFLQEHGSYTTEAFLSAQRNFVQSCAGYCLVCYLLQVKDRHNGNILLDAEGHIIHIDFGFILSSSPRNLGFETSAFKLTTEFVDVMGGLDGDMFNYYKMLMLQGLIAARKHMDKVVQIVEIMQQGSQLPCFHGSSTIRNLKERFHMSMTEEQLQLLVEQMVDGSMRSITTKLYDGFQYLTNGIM", "conditions": "unit inferred; read-out: Specificity for PI4KIIIβ (IC50 determined in vitro); cited from earlier work"}, "mTORC1": {"target": "mTORC1 (Homo sapiens, UniProt P42345)", "conditions": "unit inferred; read-out: Specificity for mTORC1 (IC50 determined in vitro); cited from earlier work"}, "[4]": {"conditions": "serum free AIM-V, anti TGFβ 3 μg/ml, SB431542 20 μM"}}}
{"smiles": "COC[C@H]1OC(=O)c2coc3c2[C@@]1(C)C1=C(C3=O)[C@@H]2CCC(=O)[C@@]2(C)C[C@H]1OC(C)=O", "note": "[Wortmannin]", "values": [{"measurement": "percentage of cells expressing Foxp3", "setting": "[1]", "value": "17.3±5.3", "unit": "%"}]}
{"smiles": "O=c1[nH]c2ccccc2n1C1CCN(Cc2ccc(-c3nc4cc5nc[nH]c5cc4nc3-c3ccccc3)cc2)CC1", "note": "[Akti-1/2]", "values": [{"measurement": "effect on Foxp3 expression (in words)", "setting": "[1]", "value": "enhanced Foxp3 expression"}, {"measurement": "effect on Foxp3 expression (in words)", "setting": "[1]; listed as Akti 1/2", "value": "induces Foxp3 expression"}]}
{"smiles": "CC(C)C[C@H](NC(=O)[C@H](Cc1ccccc1)C[C@@H](O)[C@H](Cc1ccccc1)NC(=O)OC(C)(C)C)C(=O)N[C@@H](Cc1ccccc1)C(N)=O", "note": "[L-685458]", "values": [{"measurement": "effect on Foxp3 expression (in words)", "setting": "[1]", "value": "None of these detectably enhanced the expression of Foxp3"}]}
{"smiles": "Oc1cccc(-c2nc(N3CCOCC3)c3oc4ncccc4c3n2)c1", "note": "[PI-103]", "values": [{"measurement": "IC50", "setting": "PI4P5KIα [2]", "value": "> 100000", "unit": "nM"}, {"measurement": "increase in Foxp3 expressing cells over and above TCR deprivation alone", "setting": "[1]; IC-87114 down to 0.01 μM", "value": "> 20", "unit": "%"}, {"measurement": "effect on Foxp3 expression (in words)", "setting": "[1]", "value": "strongly induced Foxp3"}, {"measurement": "Foxp3 expression in control cultures, TCR signal deprived cultures subtracted", "setting": "[1]", "value": "35.1±3.8", "unit": "%"}, {"measurement": "IC50", "setting": "PI3KC2α", "value": "~1000", "unit": "nM"}, {"measurement": "IC50", "setting": "PI4KIIα", "value": "> 100000", "unit": "nM"}, {"measurement": "IC50", "setting": "PI4KIIIα", "value": "> 100000", "unit": "nM"}, {"measurement": "IC50", "setting": "ATM", "value": 920, "unit": "nM"}, {"measurement": "IC50", "setting": "ATR", "value": 850, "unit": "nM"}]}
{"smiles": "O=c1cc(N2CCNCC2)oc2c(-c3ccccc3)cccc12", "note": "[Ly303511, 2-piperazinyl-8-phenyl-4H-1-benzopyran-4-one]", "values": [{"measurement": "percentage of cells expressing Foxp3", "setting": "[1]", "value": "6.6±3.0", "unit": "%"}]}
{"smiles": "O=C1NC(=O)/C(=C\\c2ccc3nccnc3c2)S1", "note": "[SA-605240]", "values": [{"measurement": "effect on Foxp3 expression (in words)", "setting": "[1]; listed as AS-605240", "value": "affected Foxp3 only at concentrations far in excess of its IC50 for p110γ"}]}
{"smiles": "COc1ccc2c(c1OC)N=C(NC(=O)c1cccnc1)N1CCN=C21", "note": "[PIK90]", "values": [{"measurement": "IC50", "setting": "PI4P5KIα [2]", "value": "> 100000", "unit": "nM"}, {"measurement": "IC50", "setting": "PI4P5KIα [3]", "value": "> 100000", "unit": "nM"}, {"measurement": "IC50", "setting": "DNA-PK", "value": 13, "unit": "nM"}, {"measurement": "effect on Foxp3 expression at 0.1 μM", "setting": "[1]; 0.1 μM", "value": "strongly induced Foxp3"}, {"measurement": "Foxp3 expression in control cultures, TCR signal deprived cultures subtracted", "setting": "[1]", "value": "36.0±12.9", "unit": "%"}, {"measurement": "IC50", "setting": "PI3KC2α", "value": 47, "unit": "nM"}, {"measurement": "IC50", "setting": "PI4KIIα", "value": "> 100000", "unit": "nM"}, {"measurement": "IC50", "setting": "PI5P4KIIβ", "value": "> 100000", "unit": "nM"}, {"measurement": "IC50", "setting": "PI3KC2β", "value": 64, "unit": "nM"}, {"measurement": "IC50", "setting": "PI4KIIIβ", "value": 3100, "unit": "nM"}, {"measurement": "IC50", "setting": "mTORC1", "value": 1050, "unit": "nM"}, {"measurement": "IC50", "setting": "PI4KIIIα", "value": 830, "unit": "nM"}, {"measurement": "IC50", "setting": "ATM", "value": 610, "unit": "nM"}, {"measurement": "IC50", "setting": "ATR", "value": 15000, "unit": "nM"}]}
{"smiles": "CO[C@H]1C[C@@H]2CC[C@@H](C)[C@@](O)(O2)C(=O)C(=O)N2CCCC[C@H]2C(=O)O[C@H]([C@H](C)C[C@@H]2CC[C@@H](O)[C@H](OC)C2)CC(=O)[C@H](C)/C=C(\\C)[C@@H](O)[C@@H](OC)C(=O)[C@H](C)C[C@H](C)/C=C/C=C/C=C/1C", "note": "[rapamycin]", "values": [{"measurement": "% Foxp3+ cells (nutrient deprivation experiment)", "setting": "[1]; 18 hour activated CD4 T cells", "value": 25, "unit": "% Foxp3^+"}, {"measurement": "percentage of cells expressing Foxp3", "setting": "[1]", "value": "26.8±14.4", "unit": "%"}, {"measurement": "Foxp3 expression in control cultures, TCR signal deprived cultures subtracted", "setting": "[1]", "value": "28.6±9.0", "unit": "%"}]}
{"smiles": "NC(=O)c1ccc(-c2nc(-c3ccc4c(c3)OCO4)c(-c3ccccn3)[nH]2)cc1", "note": "[SB431542]", "values": [{"measurement": "effect on Foxp3 induction by PI3K/mTOR inhibitors", "setting": "[1]; [4]", "value": "had no effect"}, {"measurement": "reduction of Foxp3 induction by TGFβ", "setting": "[1]; [4]", "value": 96, "unit": "%"}]}
{"smiles": "Cc1ccc([N+](=O)[O-])cc1S(=O)(=O)N(C)/N=C/c1cnc2ccc(Br)cn12", "note": "[PIK75]", "values": [{"measurement": "toxicity in the Foxp3 induction assay", "setting": "[1]; over the duration of the assay", "value": "toxicity over the duration of our assay"}]}
